Where two headings read alike, the source gives them in different places.
Experiments:
Pharmacokinetic analyses [1] = assay type: in vivo, cynomolgus monkeys; settings: male monkey
Description: (§1) The i.v. formulation in dogs and monkeys was 5% DMAC and 20% sulfobutyl ether β-cyclodextrin in saline. The oral formulation in all species was 5% DMAC in 0.5% methylcellulose aqueous solution. For rats, blood samples were collected at predose, 5 (i.v. dosing only), 15, and 30 minutes, and 1, 2, 4, 6, 8, and 24 hours. For dogs, blood samples were collected at predose, 2.5 and 5 (i.v. dosing only), 15, and 30 minutes, and 1, 2, 3, 4, 6, 8, 12, and 24 hours postdose. For monkeys, blood samples were collected at predose, 5 and 10 (i.v. dosing only), 15, and 30 minutes, and 1, 2, 3, 4, 6, 8, 12, 16, and 24 hours postdose. Collected blood samples were processed to extract plasma by centrifugation and stored at −20 °C until analysis.
(§2) The plasma was protein precipitated and the diluted supernatant was analyzed using LC/MS/MS. A standard curve was prepared in plasma from 1 to 5,000 nM and processed in the same manner as the samples. The pharmacokinetic parameters were determined using WinNonLin 6.3.

Pharmacokinetic analyses [2] = assay type: in vivo, Sprague Dawley rats; settings: male rat
Description: as §1, with “The i.v. formulation in rats was 5% dimethylacetamide (DMAC) and 25% sulfobutyl ether β-cyclodextrin in acidified saline (pH 3). The i.v.” for “The i.v.”
as §2

PIM1 = biological target: T1, PIM1 (Homo sapiens, UniProt P11309); test: Enzyme selectivity panel; assay type: biochemical; settings: 1 mM ATP
T1 construct: purchased In-house HTRF panel (56 kinases) and PerkinElmer (161-kinase panel)
Description: (§4) The kinase assays were carried out at room temperature in HEPES 50 mM, pH 7.0, NaN3 0.02%, BSA 0.01%, Orthovanadate 0.1 mM, DTT 1 mM, MgCl2 10 mM in a final volume of 10 µL. Test compounds were transferred to the plate wells by ECHO liquid handler (Labcyte, San Jose, CA) with 0.5% dimethyl sulfoxide (DMSO) in the final assay. Peptide/kinase mixtures were diluted in the appropriate enzymatic buffer and 5µL of the mixture was added to a 384-well small volume black plate. Reactions were initiated by the addition of 5 µL ATP in reaction buffer, the final reaction mixture consisted of 500 nM peptide substrate, 1 mM ATP, and appropriate amount of specific kinase. […] The plates were then sealed and centrifuged at 1800 rpm for 2 minutes. […] Half maximal inhibitory concentration (IC50) determination was performed by fitting the curve of percent control activity versus the log of the compound concentration using the GraphPad Prism 6.0 software.

LCK = LCK (Homo sapiens, UniProt P06239); test: Enzyme selectivity panel; assay type: biochemical; settings: 1 mM ATP
Description: as §4

CYP2B6 = biological target: T2, CYP2B6 (Homo sapiens, UniProt P20813); test: CYP inhibition; assay type: in vitro ADME; settings: human liver microsomes
T2 construct: from tissue; host or cells: human liver microsomes
Description: (§3) In addition, the known selective inhibitors of CYP1A2 (α-naphthoflavone), CYP2B6 (ticlopidine), CYP2C8 (quercetin), CYP2C9 (sulfaphenazole), CYP2C19 (tranylcypromine), CYP2D6 (quinidine), and CYP3A4 (ketoconazole) were included as positive controls. […] Samples were vortexed and centrifuged, and the resulting supernatants were analyzed using LC-MS/MS.

CYP2C19 = biological target: T3, CYP2C19 (Homo sapiens, UniProt P33261); test: CYP inhibition; assay type: in vitro ADME; settings: human liver microsomes
T3 construct: from tissue; host or cells: human liver microsomes
Description: as §3

CYP3A4 = biological target: T4, CYP3A4 (Homo sapiens, UniProt P08684); test: CYP inhibition; assay type: in vitro ADME; settings: human liver microsomes
T4 construct: from tissue; host or cells: human liver microsomes
Description: as §3

CYP2D6 = biological target: T5, CYP2D6 (Homo sapiens, UniProt P10635); test: CYP inhibition; assay type: in vitro ADME; settings: human liver microsomes
T5 construct: from tissue; host or cells: human liver microsomes
Description: as §3

CYP2C9 = biological target: T6, CYP2C9 (Homo sapiens, UniProt P11712); test: CYP inhibition; assay type: in vitro ADME; settings: human liver microsomes
T6 construct: from tissue; host or cells: human liver microsomes
Description: as §3

CYP1A2 = biological target: T7, CYP1A2 (Homo sapiens, UniProt P05177); test: CYP inhibition; assay type: in vitro ADME; settings: human liver microsomes
T7 construct: from tissue; host or cells: human liver microsomes
Description: as §3

CYP2C8 = biological target: T8, CYP2C8 (Homo sapiens, UniProt P10632); test: CYP inhibition; assay type: in vitro ADME; settings: human liver microsomes
T8 construct: from tissue; host or cells: human liver microsomes
Description: as §3

AKT1 = AKT1 (Homo sapiens, UniProt P31749); test: Enzyme selectivity panel; assay type: biochemical; settings: 1 mM ATP
Description: as §4

[3] = test system: RT-112 (FGFR3-TACC3 fusion positive) bladder carcinoma model; test: RT-112 xenograft efficacy; assay type: in vivo, Rowett Nude rats; settings: oral, 14 days
Description: The inoculation of 0.5 mL was performed subcutaneously on the flank. The treatment of tumor bearing rats was started 8 days after tumor inoculation.

UMUC3 = test: Cell viability assay (CellTiter-Glo); assay type: cell-based; settings: Homo sapiens, Bladder, lacking FGFR alterations
HIPK3 = HIPK3 (Homo sapiens, UniProt Q9H422); test: Enzyme selectivity panel; assay type: biochemical; settings: 1 mM ATP
Description: as §4

TIE2 = TIE2 (Homo sapiens, UniProt Q02763); test: Enzyme selectivity panel; assay type: biochemical; settings: 1 mM ATP
Description: as §4

PDGFR BETA = biological target: T9, PDGFR BETA (Homo sapiens, UniProt P09619); test: Enzyme selectivity panel; assay type: biochemical; settings: 1 mM ATP
T9 construct: purchased In-house HTRF panel (56 kinases) and PerkinElmer (161-kinase panel)
Description: as §4

IGF1R = IGF1R (Homo sapiens, UniProt P08069); test: Enzyme selectivity panel; assay type: biochemical; settings: 1 mM ATP
Description: as §4

[4] = Plasma exposure after single oral dose in KATO III tumor-bearing mice; assay type: in vivo, mouse; settings: single oral dose of 0.1, 1, and 10 mg/kg
Description: (A) Pharmacokinetic profile of INCB054828 in the mouse. […] (B) Pharmacokinetic-pharmacodynamic analyses in KATO III tumors. […] Plasma was subjected to analytical analysis and phospho-FGFR2 in tumor homogenate was determined by ELISA.

DMS-114 (lung cancer) = test: Cell viability assay (CellTiter-Glo); assay type: cell-based; settings: Homo sapiens, FGFR1 amplification, 72 hours, read-out: Mean GI50 ± S.D.
BRAF = BRAF (Homo sapiens, UniProt P15056); test: Enzyme selectivity panel; assay type: biochemical; settings: 1 mM ATP
Description: as §4

OPM-2 (myeloma) = test: Cell viability assay (CellTiter-Glo); assay type: cell-based; settings: Homo sapiens, IgH-FGFR3 translocation, 72 hours, read-out: Mean GI50 ± S.D.
[5] = intravenous 1 mg/kg, % of hepatic blood flow
[6] = Sprague Dawley, plasma, oral 2 mg/kg

T8 sequence (P10632 whole entry): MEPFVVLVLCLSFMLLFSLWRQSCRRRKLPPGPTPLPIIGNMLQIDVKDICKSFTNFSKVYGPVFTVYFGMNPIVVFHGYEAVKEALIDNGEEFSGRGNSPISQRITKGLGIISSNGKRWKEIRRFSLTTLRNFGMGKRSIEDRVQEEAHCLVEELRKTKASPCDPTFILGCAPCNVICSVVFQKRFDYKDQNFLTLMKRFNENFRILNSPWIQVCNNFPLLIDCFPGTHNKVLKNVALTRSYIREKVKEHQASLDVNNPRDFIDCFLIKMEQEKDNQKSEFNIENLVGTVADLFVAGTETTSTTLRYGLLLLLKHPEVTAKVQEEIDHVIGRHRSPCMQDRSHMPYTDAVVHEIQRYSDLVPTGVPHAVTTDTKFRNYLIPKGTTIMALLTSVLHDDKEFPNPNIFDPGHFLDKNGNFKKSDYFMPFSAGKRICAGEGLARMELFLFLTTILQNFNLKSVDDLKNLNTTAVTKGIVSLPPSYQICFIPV
Chain of IGF1R (P08069 31-1367, species assumed): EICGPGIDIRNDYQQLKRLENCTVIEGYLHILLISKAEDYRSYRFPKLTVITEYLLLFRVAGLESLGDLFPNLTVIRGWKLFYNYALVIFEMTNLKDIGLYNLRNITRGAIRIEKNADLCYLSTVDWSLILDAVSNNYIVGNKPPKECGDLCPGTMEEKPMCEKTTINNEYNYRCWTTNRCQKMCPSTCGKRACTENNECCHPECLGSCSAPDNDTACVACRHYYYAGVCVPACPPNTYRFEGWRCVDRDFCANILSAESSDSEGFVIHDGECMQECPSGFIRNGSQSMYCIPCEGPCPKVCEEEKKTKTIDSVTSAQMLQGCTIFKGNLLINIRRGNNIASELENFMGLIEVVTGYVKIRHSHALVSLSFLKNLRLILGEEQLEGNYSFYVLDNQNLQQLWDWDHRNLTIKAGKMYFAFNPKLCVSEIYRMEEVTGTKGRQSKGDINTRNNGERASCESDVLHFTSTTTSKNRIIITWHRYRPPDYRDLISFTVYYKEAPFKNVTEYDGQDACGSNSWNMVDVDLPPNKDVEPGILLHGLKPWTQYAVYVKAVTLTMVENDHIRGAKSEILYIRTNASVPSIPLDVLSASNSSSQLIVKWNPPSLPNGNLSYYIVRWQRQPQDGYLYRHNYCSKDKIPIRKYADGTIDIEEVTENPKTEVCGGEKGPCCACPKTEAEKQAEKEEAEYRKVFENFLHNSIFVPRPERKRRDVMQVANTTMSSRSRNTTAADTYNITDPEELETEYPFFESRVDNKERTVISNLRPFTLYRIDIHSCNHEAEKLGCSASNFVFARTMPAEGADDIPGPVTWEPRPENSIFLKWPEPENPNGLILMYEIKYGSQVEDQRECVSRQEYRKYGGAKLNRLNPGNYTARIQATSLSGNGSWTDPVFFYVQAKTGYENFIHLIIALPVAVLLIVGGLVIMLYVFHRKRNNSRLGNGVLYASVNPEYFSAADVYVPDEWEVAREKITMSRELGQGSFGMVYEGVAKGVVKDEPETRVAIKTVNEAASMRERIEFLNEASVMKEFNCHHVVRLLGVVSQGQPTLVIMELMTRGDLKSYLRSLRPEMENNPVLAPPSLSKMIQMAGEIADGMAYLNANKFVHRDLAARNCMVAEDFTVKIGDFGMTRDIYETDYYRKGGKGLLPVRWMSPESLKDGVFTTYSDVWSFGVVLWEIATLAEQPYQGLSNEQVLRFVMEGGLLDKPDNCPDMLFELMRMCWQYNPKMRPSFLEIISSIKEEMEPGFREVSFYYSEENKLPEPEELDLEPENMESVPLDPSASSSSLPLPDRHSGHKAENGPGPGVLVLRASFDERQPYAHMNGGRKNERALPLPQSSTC
T6 sequence (P11712 whole entry): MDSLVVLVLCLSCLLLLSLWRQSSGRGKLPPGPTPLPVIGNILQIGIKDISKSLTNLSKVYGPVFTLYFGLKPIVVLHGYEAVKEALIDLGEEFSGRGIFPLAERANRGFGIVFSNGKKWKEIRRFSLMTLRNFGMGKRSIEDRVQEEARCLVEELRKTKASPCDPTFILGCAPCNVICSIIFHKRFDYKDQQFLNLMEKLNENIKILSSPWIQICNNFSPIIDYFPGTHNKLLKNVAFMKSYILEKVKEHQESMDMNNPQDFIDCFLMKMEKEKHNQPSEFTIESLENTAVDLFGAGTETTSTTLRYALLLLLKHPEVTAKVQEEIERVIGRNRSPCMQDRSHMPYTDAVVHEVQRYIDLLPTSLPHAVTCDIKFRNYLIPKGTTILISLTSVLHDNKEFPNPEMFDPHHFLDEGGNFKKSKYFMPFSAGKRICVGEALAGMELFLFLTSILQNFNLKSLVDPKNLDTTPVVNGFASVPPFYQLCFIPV
T5 sequence (P10635 whole entry): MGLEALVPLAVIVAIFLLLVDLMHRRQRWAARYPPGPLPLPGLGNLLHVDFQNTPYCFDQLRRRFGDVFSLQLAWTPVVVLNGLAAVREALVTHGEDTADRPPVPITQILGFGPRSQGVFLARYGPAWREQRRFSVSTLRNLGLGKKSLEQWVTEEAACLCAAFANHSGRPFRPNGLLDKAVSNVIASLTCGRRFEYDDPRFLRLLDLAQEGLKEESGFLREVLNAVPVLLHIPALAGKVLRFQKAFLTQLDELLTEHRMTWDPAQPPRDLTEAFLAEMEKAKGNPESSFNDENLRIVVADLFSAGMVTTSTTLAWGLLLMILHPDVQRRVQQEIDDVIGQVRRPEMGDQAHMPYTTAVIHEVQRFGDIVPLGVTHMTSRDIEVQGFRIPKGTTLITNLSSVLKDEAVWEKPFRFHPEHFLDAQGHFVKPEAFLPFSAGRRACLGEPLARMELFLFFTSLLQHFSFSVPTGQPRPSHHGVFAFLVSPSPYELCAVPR
T2 sequence (P20813 whole entry): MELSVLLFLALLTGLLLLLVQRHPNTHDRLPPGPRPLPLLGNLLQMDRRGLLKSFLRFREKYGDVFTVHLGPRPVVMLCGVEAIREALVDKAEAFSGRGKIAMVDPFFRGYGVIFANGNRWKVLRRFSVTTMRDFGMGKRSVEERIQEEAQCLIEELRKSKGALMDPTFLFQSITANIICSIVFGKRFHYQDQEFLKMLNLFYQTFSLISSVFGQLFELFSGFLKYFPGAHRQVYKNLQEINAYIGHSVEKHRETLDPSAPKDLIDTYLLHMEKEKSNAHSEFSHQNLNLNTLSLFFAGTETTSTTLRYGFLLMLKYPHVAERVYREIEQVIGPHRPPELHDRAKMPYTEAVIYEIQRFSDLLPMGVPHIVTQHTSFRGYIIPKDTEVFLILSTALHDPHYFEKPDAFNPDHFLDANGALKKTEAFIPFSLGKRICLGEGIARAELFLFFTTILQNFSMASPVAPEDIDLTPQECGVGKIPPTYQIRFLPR
T3 sequence (P33261 whole entry): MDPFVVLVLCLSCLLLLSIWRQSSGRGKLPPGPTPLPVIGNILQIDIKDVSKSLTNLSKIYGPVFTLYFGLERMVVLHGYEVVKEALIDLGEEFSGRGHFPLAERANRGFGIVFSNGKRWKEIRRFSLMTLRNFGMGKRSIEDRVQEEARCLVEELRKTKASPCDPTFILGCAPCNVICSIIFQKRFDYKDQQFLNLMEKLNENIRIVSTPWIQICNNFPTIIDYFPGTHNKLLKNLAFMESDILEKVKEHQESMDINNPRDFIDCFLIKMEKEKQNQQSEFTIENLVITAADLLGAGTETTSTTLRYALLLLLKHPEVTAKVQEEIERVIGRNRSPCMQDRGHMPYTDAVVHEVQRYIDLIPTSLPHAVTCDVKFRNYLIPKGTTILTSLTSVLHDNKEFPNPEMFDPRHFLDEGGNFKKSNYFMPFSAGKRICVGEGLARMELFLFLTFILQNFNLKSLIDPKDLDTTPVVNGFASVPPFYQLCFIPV
T9 sequence (P09619 33-1106, species assumed): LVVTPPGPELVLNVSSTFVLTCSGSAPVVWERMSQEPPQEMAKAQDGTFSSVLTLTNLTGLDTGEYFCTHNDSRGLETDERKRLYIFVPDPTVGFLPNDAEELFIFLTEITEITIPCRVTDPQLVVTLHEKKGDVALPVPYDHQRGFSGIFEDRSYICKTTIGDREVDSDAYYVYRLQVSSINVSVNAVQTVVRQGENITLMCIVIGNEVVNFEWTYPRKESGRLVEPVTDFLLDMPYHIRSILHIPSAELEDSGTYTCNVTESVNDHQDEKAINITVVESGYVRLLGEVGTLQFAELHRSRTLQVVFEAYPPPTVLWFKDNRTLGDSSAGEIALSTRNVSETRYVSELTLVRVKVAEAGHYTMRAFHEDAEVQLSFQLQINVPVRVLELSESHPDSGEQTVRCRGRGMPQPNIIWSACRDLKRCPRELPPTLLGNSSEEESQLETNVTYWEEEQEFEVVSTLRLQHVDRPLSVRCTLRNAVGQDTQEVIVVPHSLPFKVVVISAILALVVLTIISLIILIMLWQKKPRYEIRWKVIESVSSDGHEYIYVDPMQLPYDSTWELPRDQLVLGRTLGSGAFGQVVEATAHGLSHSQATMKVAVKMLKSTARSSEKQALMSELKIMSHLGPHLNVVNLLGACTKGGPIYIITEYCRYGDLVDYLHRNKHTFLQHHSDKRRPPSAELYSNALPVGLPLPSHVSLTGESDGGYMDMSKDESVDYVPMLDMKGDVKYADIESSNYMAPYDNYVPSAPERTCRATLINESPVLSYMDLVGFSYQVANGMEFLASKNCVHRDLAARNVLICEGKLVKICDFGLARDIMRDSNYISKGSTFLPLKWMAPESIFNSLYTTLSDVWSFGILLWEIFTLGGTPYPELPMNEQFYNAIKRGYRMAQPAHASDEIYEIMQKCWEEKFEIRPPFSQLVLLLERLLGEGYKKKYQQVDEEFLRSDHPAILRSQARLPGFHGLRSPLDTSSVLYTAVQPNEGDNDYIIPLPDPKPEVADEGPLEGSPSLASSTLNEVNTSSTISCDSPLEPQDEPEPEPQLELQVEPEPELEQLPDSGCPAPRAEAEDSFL

## CCN1C(=O)N(c2c(F)c(OC)cc(OC)c2F)Cc2cnc3[nH]c(CN4CCOCC4)cc3c21 [INCB054828, pemigatinib]
Pharmacokinetic analyses [1]; cynomolgus monkey, plasma, intravenous 1 mg/kg
  clearance: 3.3 mL/min/kg
Pharmacokinetic analyses [1]; cynomolgus monkey, plasma, intravenous 1 mg/kg, read-out: Vss
  Vd: 0.584 L/kg
Pharmacokinetic analyses [1]; cynomolgus monkey, plasma, intravenous 1 mg/kg, read-out: t½ (converted)
  half-life: 10.3 h
Pharmacokinetic analyses [1]; cynomolgus monkey, plasma, oral 2 mg/kg
  bioavailability: 29%
Pharmacokinetic analyses [1]; [5]
  Hepatic ER: 8%
Pharmacokinetic analyses [1]; oral 2 mg/kg
  AUC: 6.19 µM·h
Pharmacokinetic analyses [2]; Sprague Dawley, plasma, intravenous 1 mg/kg
  clearance: 17.2 mL/min/kg
Pharmacokinetic analyses [2]; Sprague Dawley, plasma, intravenous 1 mg/kg, read-out: Vss
  Vd: 1.85 L/kg
Pharmacokinetic analyses [2]; Sprague Dawley, plasma, intravenous 1 mg/kg, read-out: t½ (converted)
  half-life: 4 h
Pharmacokinetic analyses [2]; [6]
  Cmax: 2260 nM
  bioavailability: > 100%
Pharmacokinetic analyses [2]; [5]
  Hepatic ER: 31%
Pharmacokinetic analyses [2]; oral 2 mg/kg
  %F: complete
  AUC: 7.67 µM·h
PIM1
  IC50: > 10 µM
LCK
  IC50: > 10 µM
CYP2B6
  IC50: > 25 µM
CYP2C19
  IC50: > 25 µM
CYP3A4
  IC50: > 25 µM
CYP2D6
  IC50: > 25 µM
CYP2C9
  IC50: > 25 µM
CYP1A2
  IC50: > 25 µM
CYP2C8
  IC50: > 25 µM
AKT1
  IC50: > 10 µM
[3]; 0.3 mg/kg once daily
  tumor growth inhibition: significant tumor growth inhibition
[3]; 1 mg/kg once daily
  tumor growth inhibition: significant tumor growth inhibition
UMUC3
  GI50: > 5 µM
HIPK3
  IC50: > 10 µM
TIE2
  IC50: > 10 µM
PDGFR BETA
  IC50: 1.79 µM
IGF1R
  IC50: > 10 µM
[4]
  plasma exposures, dose dependence: dose linear
DMS-114 (lung cancer)
  GI50: 0.027 µM
BRAF
  IC50: > 10 µM
OPM-2 (myeloma)
  GI50: 0.018 ± 0.009 µM

From publication PMC7313537 (PLoS ONE, 2020)
